Tested on: patients after acute myocardial infarction
Experiment: Life quality, Seattle Angina Questionnaire (SAQ), same clinical trial
Format: in vivo, human
Details: 9 months after treatment
Text: 3508 patients who were in accordance with the diagnostic standards of AMI for 28 days to 2 years and differentiated as Qi deficiency and blood stagnation syndrome by TCM were studied. 0.5 g Chinese medicine composition prepared by the method of EXAMPLE 1 (Coded as QSYQ) was administrated half an hour after meal, 3 times per day.
There were 19 questions in the Seattle angina questionnaire (SAQ), including 5 parts: physical limitation (PL), anginal stability (AS), anginal frequency (AF), treatment satisfaction (TS) and disease perception (DP). After being given necessary explanation by doctors, the questions were answered independently by patients.
They included the overall survival time, angina pectoris score, TCM symptom score and life quality score, where angina pectoris score, TCM symptom score and life quality score were evaluated at randomization, in 1st, 3rd, 6th, 9th, 12th month after treatment and 18th month after follow-up.
All evaluation results of SAQ were described during the period of observation, and Wilcoxon rank sum test was used for inter-group comparison.
The evaluation results in the SAQ were depicted in different observations, and inter-group comparison was tested by Wilcoxon Rank-sum test.

CC(=O)Oc1ccccc1C(=O)O [Control group, aspirine]
SAQ Question 1-4: Not limited, number of patients (FAS): 797 | SAQ Question 1-4: Not limited, percent of patients (FAS): (45.70%) | SAQ Question 1-4: Other reasons, number of patients (FAS): 10 | SAQ Question 1-4: Other reasons, percent of patients (FAS): (0.57%) | SAQ Question 1-4: Severely limited, number of patients (FAS): 19 | SAQ Question 1-4: Severely limited, percent of patients (FAS): (1.09%) | SAQ Question 1-4: Slightly limited, number of patients (FAS): 569 | SAQ Question 1-4: Slightly limited, percent of patients (FAS): (32.63%) | SAQ Question 1-5: Mildly limited, number of patients (FAS): 284 | SAQ Question 1-5: Mildly limited, percent of patients (FAS): (16.29%) | SAQ Question 1-5: Moderately limited, number of patients (FAS): 103 | SAQ Question 1-5: Moderately limited, percent of patients (FAS): (5.91%) | SAQ Question 1-5: Not limited, number of patients (FAS): 825 | SAQ Question 1-5: Not limited, percent of patients (FAS): (47.33%) | SAQ Question 1-5: Other reasons, number of patients (FAS): 11 | SAQ Question 1-5: Other reasons, percent of patients (FAS): (0.63%) | SAQ Question 1-5: Severely limited, number of patients (FAS): 17 | SAQ Question 1-5: Severely limited, percent of patients (FAS): (0.98%) | SAQ Question 1-5: Slightly limited, number of patients (FAS): 503 | SAQ Question 1-5: Slightly limited, percent of patients (FAS): (28.86%) | SAQ Question 1-9: Mildly limited, % of cases (FAS): (19.38%) | SAQ Question 1-9: Mildly limited, cases (FAS): 332 | SAQ Question 1-9: Moderately limited, % of cases (FAS): (20.61%) | SAQ Question 1-9: Moderately limited, cases (FAS): 353 | SAQ Question 1-9: Not limited, % of cases (FAS): (3.91%) | SAQ Question 1-9: Not limited, cases (FAS): 67 | SAQ Question 1-9: Other reasons, % of cases (FAS): (5.60%) | SAQ Question 1-9: Other reasons, cases (FAS): 96 | SAQ Question 1-9: Severely limited, % of cases (FAS): (33.39%) | SAQ Question 1-9: Severely limited, cases (FAS): 572 | SAQ Question 1-9: Slightly limited, % of cases (FAS): (17.10%) | SAQ Question 1-9: Slightly limited, cases (FAS): 293 | SAQ 2nd question: Clearly increased, % of cases (PP): (0.63%) | SAQ 2nd question: Clearly increased, cases (PP): 9 | SAQ 2nd question: Clearly reduced, % of cases (PP): (26.01%) | SAQ 2nd question: Clearly reduced, cases (PP): 373 | SAQ 2nd question: Same, % of cases (PP): (34.94%) | SAQ 2nd question: Same, cases (PP): 501 | SAQ 2nd question: Slightly increased, % of cases (PP): (3.21%) | SAQ 2nd question: Slightly increased, cases (PP): 46 | SAQ 2nd question: Slightly reduced, % of cases (PP): (35.22%) | SAQ 2nd question: Slightly reduced, cases (PP): 505 | SAQ 3rd question: 1-2 times per week, % of cases (PP): (35.22%) | SAQ 3rd question: 1-2 times per week, cases (PP): 505 | SAQ 3rd question: 1-3 times per day, % of cases (PP): (3.21%) | SAQ 3rd question: 1-3 times per day, cases (PP): 46 | SAQ 3rd question: <1 time per week, % of cases (PP): (26.01%) | SAQ 3rd question: <1 time per week, cases (PP): 373 | SAQ 3rd question: No onset, % of cases (PP): (0.00%) | SAQ 3rd question: No onset, cases (PP): 0 | SAQ 3rd question: ≧3 times per week, % of cases (PP): (34.94%) | SAQ 3rd question: ≧3 times per week, cases (PP): 501 | SAQ 3rd question: ≧4 times per day, % of cases (PP): (0.63%) | SAQ 3rd question: ≧4 times per day, cases (PP): 9 | SAQ Question 1-3: Mildly limited, number of patients (PP): 37 | SAQ Question 1-3: Mildly limited, percent of patients (PP): (2.57%) | SAQ Question 1-3: Moderately limited, number of patients (PP): 10 | SAQ Question 1-3: Moderately limited, percent of patients (PP): (0.70%) | SAQ Question 1-3: Not limited, number of patients (PP): 1187 | SAQ Question 1-3: Not limited, percent of patients (PP): (82.60%) | SAQ Question 1-3: Other reasons, number of patients (PP): 6 | SAQ Question 1-3: Other reasons, percent of patients (PP): (0.42%) | SAQ Question 1-3: Severely limited, number of patients (PP): 1 | SAQ Question 1-3: Severely limited, percent of patients (PP): (0.07%) | SAQ Question 1-3: Slightly limited, number of patients (PP): 196 | SAQ Question 1-3: Slightly limited, percent of patients (PP): (13.64%) | SAQ Question 1-4: Mildly limited, number of patients (PP): 208 | SAQ Question 1-4: Mildly limited, percent of patients (PP): (14.49%) | SAQ Question 1-4: Moderately limited, number of patients (PP): 63 | SAQ Question 1-4: Moderately limited, percent of patients (PP): (4.39%) | SAQ Question 1-4: Not limited, number of patients (PP): 673 | SAQ Question 1-4: Not limited, percent of patients (PP): (46.90%) | SAQ Question 1-4: Other reasons, number of patients (PP): 10 | SAQ Question 1-4: Other reasons, percent of patients (PP): (0.70%) | SAQ Question 1-4: Severely limited, number of patients (PP): 9 | SAQ Question 1-4: Severely limited, percent of patients (PP): (0.63%) | SAQ Question 1-4: Slightly limited, number of patients (PP): 472
